# Results taken from patent US4226879A, “Antibiotic composition” (Kyowa Hakko Kogyo Kabushiki Kaisha, priority 1976, dated 1980).
# What was measured:
# [1] = in vivo; settings: mouse, ip
# [2] = tested on: Aspergillus niger; experiment: MIC, agar dilution method; assay type: cell-based; settings: pH 6.8, 27° C. 72 hours
# [3] = tested on: Salmonella typhimurium; experiment: MIC, agar dilution method; assay type: cell-based; settings: Salmonella enterica, pH 7.0, 37° C., 18 hours
# [4] = tested on: Eimeria tenella K-2; experiment: anticoccidial test in chicks (Example 4); settings: for Caecal lession (numbers of chicks), +: grade + (light); for Caecal lession (numbers of chicks), + / Caecal lession (numbers of chicks), ++ / Caecal lession (numbers of chicks), +++ / Caecal lession (numbers of chicks), -: groups of 10 chicks; for Caecal lession (numbers of chicks), ++: grade ++ (middle); for Caecal lession (numbers of chicks), +++: grade +++ (heavy); for Caecal lession (numbers of chicks), -: grade - (not infected)
# [5] = tested on: Proteus vulgaris IFO 3163; experiment: MIC, agar dilution method; assay type: cell-based; settings: IFO3163, pH 7.0, 37° C., 18 hours
# [6] = tested on: B. anthracis; experiment: microbe, parasite or virus in culture; assay type: cell-based; settings: Bacillus anthracis, 18 h, pH 7
# [7] = tested on: Mycobacterium smegmatis ATCC 607; experiment: MIC, agar dilution method; assay type: cell-based; settings: Mycolicibacterium smegmatis, ATCC607; pH 7.0, 37° C., 18 hours
# [8] = tested on: Xanthomonas oryzae; experiment: microbe, parasite or virus in culture; assay type: cell-based; settings: 72 h, pH 6.8
# [9] = tested on: S. aureus FDA 209P JC-1; experiment: MIC, agar dilution method; assay type: cell-based; settings: Staphylococcus aureus, FDA209P; pH 7.0, 37° C., 18 hours
# [10] = tested on: Candida albicans; experiment: MIC, agar dilution method; assay type: cell-based; settings: pH 6.8, 27° C. 72 hours
# [11] = tested on: S. albus; experiment: MIC, agar dilution method; assay type: cell-based; settings: pH 7.0, 37° C., 18 hours
# Description: (§1) Table 1 indicates the antibacterial and antifungal activity of AM-1042 as minimum inhibitory concentration (mcg/ml) determined by the agar dilution method.
# (§2) *Peptone 0.5%; meat extract 0.5%; agar 1.2% (pH 7.0), 37° C., 18
# [12] = tested on: E. coli B; experiment: MIC, agar dilution method; assay type: cell-based; settings: Escherichia coli; pH 7.0, 37° C., 18 hours
# Description: as §1, §2
# [13] = tested on: B. agri; experiment: MIC, agar dilution method; assay type: cell-based; settings: pH 7.0, 37° C., 18 hours
# Description: as §1, §2
# [14] = tested on: S. aureus KB-64 (tetracycline & erythromycin-resistant); experiment: MIC, agar dilution method; assay type: cell-based; settings: Staphylococcus aureus; pH 7.0, 37° C., 18 hours
# [15] = solubility in various solvents; assay type: physicochemical
compound,measurement,setting,value
O=C(/C=C/C=C/C=C/C1CCCCC1)NC1=CC(O)(/C=C/C=C/C=C/C(=O)NC2=C(O)CCC2=O)C2OC2C1=O (stereo not drawn) [AM-1042],LD50,[1],48.5 mg/kg
same,MIC,[2],> 100 mg/L
same,MIC,[3],> 100 mg/L
same,Survival ratio,[4]; 0.00375 % in diet,90%
same,Survival ratio,[4]; 0.005 % in diet,90%
same,Survival ratio,[4]; 0.0075 % in diet,100%
same,Survival ratio,[4]; 0.01 % in diet,100%
same,Survival ratio,[4]; 0.015 % in diet,100%
same,Survival ratio,[4]; 0.02 % in diet,100%
same,Survival ratio,[4]; 0.03 % in diet,100%
same,"Caecal lession (numbers of chicks), +",[4]; 0.00375 % in diet,1 numbers of chicks
same,"Caecal lession (numbers of chicks), +",[4]; 0.005 % in diet,3 numbers of chicks
same,"Caecal lession (numbers of chicks), +",[4]; 0.0075 % in diet,5 numbers of chicks
same,"Caecal lession (numbers of chicks), +",[4]; 0.01 % in diet,2 numbers of chicks
same,"Caecal lession (numbers of chicks), ++",[4]; 0.00375 % in diet,4 numbers of chicks
same,"Caecal lession (numbers of chicks), ++",[4]; 0.005 % in diet,4 numbers of chicks
same,"Caecal lession (numbers of chicks), ++",[4]; 0.0075 % in diet,2 numbers of chicks
same,"Caecal lession (numbers of chicks), +++",[4]; 0.00375 % in diet,5 numbers of chicks
same,"Caecal lession (numbers of chicks), +++",[4]; 0.005 % in diet,3 numbers of chicks
same,"Caecal lession (numbers of chicks), -",[4]; 0.0075 % in diet,3 numbers of chicks
same,"Caecal lession (numbers of chicks), -",[4]; 0.01 % in diet,8 numbers of chicks
same,"Caecal lession (numbers of chicks), -",[4]; 0.015 % in diet,10 numbers of chicks
same,"Caecal lession (numbers of chicks), -",[4]; 0.02 % in diet,10 numbers of chicks
same,"Caecal lession (numbers of chicks), -",[4]; 0.03 % in diet,10 numbers of chicks
same,MIC,[5],> 100 mg/L
same,MIC,[6],12.5 mg/L
same,MIC,[7],> 100 mg/L
same,MIC,[8],> 100 mg/L
same,MIC,[9],0.7 mg/L
same,MIC,[10],> 100 mg/L
same,MIC,[11],12.5 mg/L
same,MIC,[12],> 100 mg/L
same,MIC,[13],12.5 mg/L
same,MIC,[14],6.2 mg/L
same,solubility,[15]; in acetone,Soluble
same,solubility,[15]; in chloroform,Soluble
same,solubility,[15]; in dimethylformamide,Easily soluble
same,solubility,[15]; in dimethylsulfoxide,Easily soluble
same,solubility,[15]; in ethanol,Soluble
same,solubility,[15]; in ethyl acetate,Soluble
same,solubility,[15]; in fat,soluble in fat
same,solubility,[15]; in methanol,Soluble
same,solubility,[15]; in n-hexane,Insoluble
same,solubility,[15]; in petroleum ether,Insoluble
same,solubility,[15]; in water,Insoluble
